The numbers were not newly measured in US20080249137A1, “PPAR active compounds” (priority 2005, published 2008), which cites them from elsewhere.

The target of data set [1] is T1, PPARδ (Homo sapiens, UniProt Q03181).
T1 sequence (Q03181 1-441): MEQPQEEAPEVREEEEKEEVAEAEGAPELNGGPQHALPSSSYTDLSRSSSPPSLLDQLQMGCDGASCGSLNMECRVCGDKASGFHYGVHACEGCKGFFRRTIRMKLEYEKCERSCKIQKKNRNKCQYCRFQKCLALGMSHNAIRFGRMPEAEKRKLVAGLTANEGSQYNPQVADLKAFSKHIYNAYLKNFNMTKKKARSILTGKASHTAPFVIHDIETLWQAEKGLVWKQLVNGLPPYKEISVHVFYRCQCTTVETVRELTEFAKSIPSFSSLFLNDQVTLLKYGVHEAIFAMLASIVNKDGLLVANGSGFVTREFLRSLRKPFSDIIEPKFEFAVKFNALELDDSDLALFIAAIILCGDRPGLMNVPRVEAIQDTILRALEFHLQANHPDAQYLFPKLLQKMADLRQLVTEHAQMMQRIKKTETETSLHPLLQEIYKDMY

In data set [2] the target is T2, murine PPARα (Mus musculus, UniProt P23204).
T2 sequence (P23204 1-468): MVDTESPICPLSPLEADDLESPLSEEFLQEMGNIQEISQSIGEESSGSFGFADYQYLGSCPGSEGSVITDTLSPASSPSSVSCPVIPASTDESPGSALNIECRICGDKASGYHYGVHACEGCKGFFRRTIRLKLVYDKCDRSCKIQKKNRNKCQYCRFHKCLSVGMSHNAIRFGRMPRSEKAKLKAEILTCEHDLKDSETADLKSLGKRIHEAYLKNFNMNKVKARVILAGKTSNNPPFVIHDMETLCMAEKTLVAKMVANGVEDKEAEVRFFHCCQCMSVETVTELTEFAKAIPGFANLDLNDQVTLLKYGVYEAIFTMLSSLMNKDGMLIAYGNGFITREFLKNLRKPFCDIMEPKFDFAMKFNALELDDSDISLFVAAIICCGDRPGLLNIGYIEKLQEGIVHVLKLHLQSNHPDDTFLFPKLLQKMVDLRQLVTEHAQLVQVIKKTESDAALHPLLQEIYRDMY

For data set [3] the following is noted: patients, large prospective trial.

Molecules are shown by their SMILES.

For the molecule `CCCc1c(OCCCOc2ccc(OCC(=O)O)cc2)ccc(C(C)=O)c1O` [Compound L-165041], the “agonist selectivity for PPARδ over PPARγ” value in data set [1] is given as “approximately 30 fold”. For the same molecule, the “activity on murine PPARα” value in data set [2] is “inactive”.
In the case of `Cc1ccc(C)c(OCCCC(C)(C)C(=O)O)c1` [gemfibrozil], the “reduction in cardiovascular events or death” value in data set [3] is 22%.
